From patent US20130102554A1, “COMPOSITION FOR TREATMENT OF OBESITY USING WHEAT BRAN EXTRACT OR ACTIVE INGREDIENT ISOLATED THEREFROM” (priority 2009, published 2013)

How the values were obtained:
resistin = test: Anti-insulin resistance assay: resistin expression at gene level in differentiated 3T3-L1 cells; type: cell-based, mouse; settings: cells differentiated for 8 days, FIGS. 19 to 24
Procedure: (§1) To examine whether the samples (Red-dog A & Red-dog B, compounds 1 & 2) are effective as anti-insulin resistance agents, expression levels of resistin, aP2 and Fas in the cells that had been differentiated for 8 days as in Experimental Example 1 were analyzed using the primers of Table 2, below.

ADD1/SREBP1c = test: Expression of ADD1/SREBP1c at gene level, real-time PCR in differentiated 3T3-L1 cells; type: cell-based, mouse; settings: 3T3-L1 differentiated 8 days, GAPDH control, FIGS. 11 to 16
Procedure: (§2) During adipocyte differentiation, expression levels of PPARγ, C/EBRα and ADD1/SREBP1c are increased.
(§3) After being treated with predetermined concentrations of the samples (Red-dog A, Red-dog B and Compounds 1 & 2) in the same manner as in Experimental Example 1-2, the cells were induced to differentiate into adipocytes for 8 days. The expression levels of PPARγ, C/EBRα and ADD1/SREBP1c were analyzed using real-time PCR. The 3T3-L1 cells were washed twice with PBS after differentiation for 8 days and the cell pellets were used for RNA isolation using an RNA prep kit (Qiagen). cDNA was synthesized from 1 μg of the isolated RNA before real-time PCR using SYBR green (Takara) and the primers given in Table 1, below. As a control gene, GAPDH was used. In this regard, the cDNA synthesized from 1 μg of RNA was diluted 1/50 to a volume of 5 μL and mixed with 0.5 μL of each of 10 pmole primer, 10 μL of 2XSYBR green, and […] of distilled water to give a PCR mix with a total volume of 20 μL. Real-time PCR started with denaturation at 95° C. for 30 sec, followed by 40 thermal cycles of denaturation at 95° C. for 5 sec, annealing for 60° C. for 15 sec and extension at 72° C. for 10 sec. The melt curve consisted of 80 melt cycles, starting at 55° C. to 95° C. with increments of 0.5° C. per cycle. Desired fluorescent signals were detected (data analysis was done with Bio-Rad MyiQ program).

C/EBRα [1] = test: Expression of C/EBRα at gene level, real-time PCR in differentiated 3T3-L1 cells; type: cell-based, mouse; settings: 3T3-L1 differentiated 8 days, GAPDH control, FIGS. 11 to 16
Procedure: as §2, §3

PPARγ [2] = test: Expression of PPARγ at protein level, SDS-PAGE and immunoblot in 3T3-L1 cells; type: cell-based, mouse; settings: 3T3-L1, compared with β-actin; FIGS. 17 and 18
Procedure: (§4) After the 313-L1 cells were treated with the samples (Red-dog A & Red-dog B, Compounds 1 & 2) at regular intervals of two days in the same manner as in the adipocyte differentiation method, they were washed twice with PBS and lyzed in RIPA buffer (50 mM Tris-HCl, pH 8.0, 150 mM sodium chloride, 1% NP-40, 0.5% sodium dexycholate, 0.1% sodium dodecyl sulfate, protease inhibitor). Proteins harvested by centrifugation at 13,000 rpm for 30 min were separated on 8% SDS-PAGE gel and then transferred onto a membrane. The membrane was blocked with TBST containing 5% skim milk and reacted with a primary antibody (PPARγ, C/EBPα) (Santa Cruz) and then with a secondary antibody (Santa Cruz), followed by color development with an ECL reagent (Thermo scientific) to compare the expression level of PPARγ and C/EBPα with that of β-actin.

Fas = test: Anti-insulin resistance assay: Fas expression at gene level in differentiated 3T3-L1 cells; type: cell-based, mouse; settings: cells differentiated for 8 days, FIGS. 19 to 24
Procedure: as §1

PPARγ [3] = test: Expression of PPARγ at gene level, real-time PCR in differentiated 3T3-L1 cells; type: cell-based, mouse; settings: 3T3-L1 differentiated 8 days, GAPDH control, FIGS. 11 to 16
Procedure: as §2, §3

aP2 = test: Anti-insulin resistance assay: aP2 expression at gene level in differentiated 3T3-L1 cells; type: cell-based, mouse; settings: cells differentiated for 8 days, FIGS. 19 to 24
Procedure: as §1

[4] = tested on: mouse preadipocyte 3T3-L1; test: Adipocyte differentiation of 3T3-L1 preadipocytes (MDI induction, Oil Red O staining, absorbance at 510 nm); type: cell-based; settings: FIGS. 3 to 8; for differentiation of preadipocytes into adipocytes: 3T3-L1, MDI-induced, day 8, Oil Red O; for lipid accumulation of adipocytes: 3T3-L1, Oil Red O lipid contents
Procedure: The mouse preadipocyte 3T3-L1 was cultured at 37° C. in 10% BCS DMEM under a 5% CO2 condition.
3T3-L1 preadipocytes were seeded at a density of 5×10^4 cells/well into 24-well plates. After being grown to 100% confluency, the cells were incubated for an additional two days. Then, the preadipocytes were induced to differentiate into adipcytes in the presence of MDI (0.5 mM 3-isobutyl-1-methylxanthine (IBMX), 1 μM dexamethasone, 1 μg/ml insulin) in 10% FBS DMEM. After incubation for 48 hours in this medium, the cells were cultured for two days in 10% FBS DMEM containing 1 μg/ml insulin. Subsequently, the cells were cultured for four days in 10% FBS DMEM, with replacement of the medium with a fresh one every two days. During adipocyte differentiation, the cells were treated with predetermined concentrations of the samples. On day 8 at which differentiation was completed, observations were made of the differentiation of the cells. In this connection, the adipose differentiation was qualitatively analyzed with Oil Red 0 staining under an optical microscope and quantitatively analyzed by measuring absorbance at 510 nm.

C/EBRα [5] = test: Expression of C/EBRα at protein level, SDS-PAGE and immunoblot in 3T3-L1 cells; type: cell-based, mouse; settings: 3T3-L1, compared with β-actin; FIGS. 17 and 18
Procedure: as §4

PPARγ [6] = target: T1, PPARγ (Homo sapiens, UniProt P37231); test: PPARγ transcriptional activity, PPRE luciferase reporter in HEK 293T cells; type: cell-based; settings: 24 hours, alone or with 10 μM troglitazone, FIGS. 9 and 10
T1 construct: expressed in transfected cells; host or cells: HEK 293T
T1 sequence (P37231 1-505): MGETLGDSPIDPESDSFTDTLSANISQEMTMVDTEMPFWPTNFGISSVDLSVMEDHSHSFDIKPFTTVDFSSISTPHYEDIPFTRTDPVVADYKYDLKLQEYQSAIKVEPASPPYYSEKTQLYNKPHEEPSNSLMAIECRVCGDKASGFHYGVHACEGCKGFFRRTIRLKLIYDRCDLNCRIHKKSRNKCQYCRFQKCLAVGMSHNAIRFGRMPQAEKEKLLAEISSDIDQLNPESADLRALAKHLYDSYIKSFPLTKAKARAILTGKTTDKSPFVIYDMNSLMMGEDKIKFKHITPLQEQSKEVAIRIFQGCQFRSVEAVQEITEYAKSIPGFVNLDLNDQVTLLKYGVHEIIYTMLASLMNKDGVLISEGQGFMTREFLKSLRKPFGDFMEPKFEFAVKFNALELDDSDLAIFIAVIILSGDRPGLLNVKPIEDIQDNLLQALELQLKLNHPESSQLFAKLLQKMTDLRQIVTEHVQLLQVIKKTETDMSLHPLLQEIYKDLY
Procedure: HEK 293T cells were co-transfected with a recombinant pGL3-basic luciferase expression vector (Promega) carrying a PPRE (PPARγ response element) gene and a PPARγ gene and a pRL-SV-40 plasmid (Promega) carrying a Renilla luciferase cDNA as a control reporter. One day after transfection, the cells were treated for 24 hours with predetermined concentrations of the samples (Red-dog A, Red-dog B and Compounds 1 & 2) alone or in combination with 10 μM troglitazone, a ligand to PPARγ. The inhibitory activity of the samples against the transcription factor PPARγ was determined by measuring the expression levels of luciferase.

| SMILES | expression of resistin at the genetic level (resistin) | expression of resistin at the genetic level (resistin; listed as Chemical Formula 2) | expression of ADD1/SREBP1c at the genetic level (ADD1/SREBP1c) | expression of C/EBRα at the genetic level (C/EBRα [1]) | expression of PPARγ at protein level (PPARγ [2]) | expression of Fas at the genetic level (Fas) | expression of Fas at the genetic level (Fas; listed as Chemical Formula 2) | expression of PPARγ at the genetic level (PPARγ [3]) | expression of aP2 at the genetic level (aP2) | expression of aP2 at the genetic level (aP2; listed as Chemical Formula 2) | differentiation of preadipocytes into adipocytes [4] | lipid accumulation of adipocytes [4] | expression of C/EBRα at protein level (C/EBRα [5]) | transcriptional activity of PPARγ (PPARγ [6]) | expression of resistin at the genetic level (resistin; listed as Chemical Formula 1) | expression of Fas at the genetic level (Fas; listed as Chemical Formula 1) | expression of aP2 at the genetic level (aP2; listed as Chemical Formula 1) |
| --- | --- | --- | --- | --- | --- | --- | --- | --- | --- | --- | --- | --- | --- | --- | --- | --- | --- |
| CCCCCC(O)C(O)/C=C/C(O)CCCCCCCC(=O)O (stereo not shown) [Compound 2, 9,12,13-trihydroxy-10(E)-octadecenoic acid] | inhibit the expression of resistin, aP2 and Fas in dose-dependent manners | significantly suppressed | inhibit the expression of PPARγ, C/EBRα and ADD1/SREBP1c in dose-dependent manners | inhibit the expression of PPARγ, C/EBRα and ADD1/SREBP1c in dose-dependent manners | inhibited the expression of PPARγ and C/EBRα in dose-dependent manners | inhibit the expression of resistin, aP2 and Fas in dose-dependent manners | significantly suppressed | inhibit the expression of PPARγ, C/EBRα and ADD1/SREBP1c in dose-dependent manners | inhibit the expression of resistin, aP2 and Fas in dose-dependent manners | significantly suppressed | inhibited the differentiation of preadipocytes into adipocytes in dose-dependent manners | inhibitory activities | inhibited the expression of PPARγ and C/EBRα in dose-dependent manners | inhibited the transcriptional activity of PPARγ in a dose-dependent manner |  |  |  |
| COc1cc(OC2OC(CO)[C@@H](O)[C@H](O)[C@@H]2O)ccc1O (stereo partly drawn) [Compound 1, methoxy-hydroquinone-4-β-D-glucopyranoside] | inhibit the expression of resistin, aP2 and Fas in dose-dependent manners |  | inhibit the expression of PPARγ, C/EBRα and ADD1/SREBP1c in dose-dependent manners | inhibit the expression of PPARγ, C/EBRα and ADD1/SREBP1c in dose-dependent manners | inhibited the expression of PPARγ and C/EBRα in dose-dependent manners | inhibit the expression of resistin, aP2 and Fas in dose-dependent manners |  | inhibit the expression of PPARγ, C/EBRα and ADD1/SREBP1c in dose-dependent manners | inhibit the expression of resistin, aP2 and Fas in dose-dependent manners |  | inhibited the differentiation of preadipocytes into adipocytes in dose-dependent manners | inhibitory activities | inhibited the expression of PPARγ and C/EBRα in dose-dependent manners | inhibited the transcriptional activity of PPARγ in a dose-dependent manner | significantly suppressed | significantly suppressed | significantly suppressed |
